According to ChEMBL document CHEMBL1909046, “DrugMatrix in vitro pharmacology data”:

Biological target: T1, Alpha-2C adrenergic receptor (Homo sapiens, UniProt P18825)
T1 sequence (P18825 whole entry): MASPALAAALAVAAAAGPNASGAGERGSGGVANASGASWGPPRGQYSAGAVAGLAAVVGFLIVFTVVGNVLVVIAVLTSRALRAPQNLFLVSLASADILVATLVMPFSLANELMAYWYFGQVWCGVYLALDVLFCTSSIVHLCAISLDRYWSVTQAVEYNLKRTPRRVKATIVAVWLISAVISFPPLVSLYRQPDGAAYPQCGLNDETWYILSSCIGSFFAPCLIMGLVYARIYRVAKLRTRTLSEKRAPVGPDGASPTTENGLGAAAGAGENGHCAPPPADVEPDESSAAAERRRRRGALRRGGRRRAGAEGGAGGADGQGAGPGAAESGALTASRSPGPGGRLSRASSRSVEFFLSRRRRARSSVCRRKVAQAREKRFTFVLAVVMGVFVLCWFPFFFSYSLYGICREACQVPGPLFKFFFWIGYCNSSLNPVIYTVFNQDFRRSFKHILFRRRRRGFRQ
Test: DRUGMATRIX: Adrenergic Alpha-2C radioligand binding (ligand: [3H] MK-912)
Format: cell membranes, Sf9, Membrane
Conditions: sf9

| Structure (SMILES) | IC50 |
| --- | --- |
| CC1(C)S[C@@H]2[C@H](NC(=O)[C@H](N)c3ccc(O)cc3)C(=O)N2[C@H]1C(=O)O [AMOXICILLIN] | Not Active |
| NS(=O)(=O)c1cc2c(cc1Cl)NCNS2(=O)=O [HYDROCHLOROTHIAZIDE] | Not Active |
| O=c1cc(-c2ccccc2)oc2c1ccc1ccccc12 [ALPHA-NAPHTHOFLAVONE] | Not Active |

Biological target: Beta-2 adrenergic receptor (Homo sapiens, UniProt P07550)
Sequence (P07550 whole entry): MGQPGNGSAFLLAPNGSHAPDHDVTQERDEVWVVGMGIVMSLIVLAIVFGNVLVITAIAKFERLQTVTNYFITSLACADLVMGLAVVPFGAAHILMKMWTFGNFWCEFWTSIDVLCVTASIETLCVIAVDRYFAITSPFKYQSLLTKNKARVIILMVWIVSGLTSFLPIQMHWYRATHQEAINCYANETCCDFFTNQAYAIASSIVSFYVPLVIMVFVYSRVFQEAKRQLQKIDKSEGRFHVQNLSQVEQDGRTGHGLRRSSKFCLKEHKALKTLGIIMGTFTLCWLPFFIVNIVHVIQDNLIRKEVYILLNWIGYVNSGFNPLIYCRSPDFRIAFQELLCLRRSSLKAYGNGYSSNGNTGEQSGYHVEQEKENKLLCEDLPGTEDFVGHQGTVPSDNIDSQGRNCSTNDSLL
Test: DRUGMATRIX: Adrenergic beta2 radioligand binding (ligand: [3H] CGP-12177)
Format: cell membranes, Membrane
Conditions: cho; Not Active = under 50% inhibition at 10 µM

| Structure (SMILES) | IC50 |
| --- | --- |
| CC1(C)S[C@@H]2[C@H](NC(=O)[C@H](N)c3ccc(O)cc3)C(=O)N2[C@H]1C(=O)O [AMOXICILLIN] | Not Active |
| NS(=O)(=O)c1cc2c(cc1Cl)NCNS2(=O)=O [HYDROCHLOROTHIAZIDE] | Not Active |
| O=c1cc(-c2ccccc2)oc2c1ccc1ccccc12 [ALPHA-NAPHTHOFLAVONE] | Not Active |

Biological target: Sodium-dependent noradrenaline transporter (Homo sapiens, UniProt P23975)
Sequence (P23975 whole entry): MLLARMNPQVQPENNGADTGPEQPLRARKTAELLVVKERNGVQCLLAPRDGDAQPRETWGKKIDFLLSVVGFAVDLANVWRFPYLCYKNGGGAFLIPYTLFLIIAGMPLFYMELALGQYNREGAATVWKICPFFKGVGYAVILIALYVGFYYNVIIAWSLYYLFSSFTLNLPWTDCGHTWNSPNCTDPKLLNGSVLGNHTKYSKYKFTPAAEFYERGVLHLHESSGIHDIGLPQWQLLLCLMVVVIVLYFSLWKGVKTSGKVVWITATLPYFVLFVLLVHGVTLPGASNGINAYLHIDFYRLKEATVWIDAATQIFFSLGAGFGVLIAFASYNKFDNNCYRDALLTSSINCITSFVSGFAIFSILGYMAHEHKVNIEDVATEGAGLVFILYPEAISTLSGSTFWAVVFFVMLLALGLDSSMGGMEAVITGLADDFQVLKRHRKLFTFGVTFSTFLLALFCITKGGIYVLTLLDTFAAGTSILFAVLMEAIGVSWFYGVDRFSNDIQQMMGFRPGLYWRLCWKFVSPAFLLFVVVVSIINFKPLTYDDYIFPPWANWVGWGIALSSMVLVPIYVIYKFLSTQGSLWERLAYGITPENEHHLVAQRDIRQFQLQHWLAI
Test: DRUGMATRIX: Norepinephrine Transporter radioligand binding (ligand: [125I] RTI-55)
Format: cell membranes, MDCK, Membrane
Conditions: mdck; Not Active = under 50% inhibition at 10 µM

| Structure (SMILES) | IC50 |
| --- | --- |
| CC1(C)S[C@@H]2[C@H](NC(=O)[C@H](N)c3ccc(O)cc3)C(=O)N2[C@H]1C(=O)O [AMOXICILLIN] | Not Active |
| NS(=O)(=O)c1cc2c(cc1Cl)NCNS2(=O)=O [HYDROCHLOROTHIAZIDE] | Not Active |
| O=c1cc(-c2ccccc2)oc2c1ccc1ccccc12 [ALPHA-NAPHTHOFLAVONE] | Not Active |

Tested on: not listed separately
Test: DRUGMATRIX: Atrial Natriuretic Factor (ANF) radioligand binding (ligand: [125I] ANF (rat))
Format: cell membranes, Cavia porcellus, Dunkin-Hartley, Adrenal gland, Membrane
Conditions: Not Active = under 50% inhibition at 10 µM

| Structure (SMILES) | IC50 | Ki |
| --- | --- | --- |
| CC1(C)S[C@@H]2[C@H](NC(=O)[C@H](N)c3ccc(O)cc3)C(=O)N2[C@H]1C(=O)O [AMOXICILLIN] | Not Active | Not Active |
| NS(=O)(=O)c1cc2c(cc1Cl)NCNS2(=O)=O [HYDROCHLOROTHIAZIDE] | Not Active | Not Active |
| O=c1cc(-c2ccccc2)oc2c1ccc1ccccc12 [ALPHA-NAPHTHOFLAVONE] | Not Active | Not Active |

Tested on: not listed separately
Test: DRUGMATRIX: Calcium Channel Type L, Dihydropyridine radioligand binding (ligand: [3H] Nitrendipine)
Format: cell membranes, Rattus norvegicus, Wistar, Cerebral cortex, Membrane
Conditions: Not Active = under 50% inhibition at 10 µM

| Structure (SMILES) | IC50 | Ki |
| --- | --- | --- |
| CC1(C)S[C@@H]2[C@H](NC(=O)[C@H](N)c3ccc(O)cc3)C(=O)N2[C@H]1C(=O)O [AMOXICILLIN] | Not Active | Not Active |
| NS(=O)(=O)c1cc2c(cc1Cl)NCNS2(=O)=O [HYDROCHLOROTHIAZIDE] | Not Active | Not Active |
| O=c1cc(-c2ccccc2)oc2c1ccc1ccccc12 [ALPHA-NAPHTHOFLAVONE] | Not Active | Not Active |

Biological target: Cannabinoid receptor 1 (Homo sapiens, UniProt P21554); also: in other assays of this panel Not Active means under 50% inhibition at 10 µM
Sequence (P21554 whole entry): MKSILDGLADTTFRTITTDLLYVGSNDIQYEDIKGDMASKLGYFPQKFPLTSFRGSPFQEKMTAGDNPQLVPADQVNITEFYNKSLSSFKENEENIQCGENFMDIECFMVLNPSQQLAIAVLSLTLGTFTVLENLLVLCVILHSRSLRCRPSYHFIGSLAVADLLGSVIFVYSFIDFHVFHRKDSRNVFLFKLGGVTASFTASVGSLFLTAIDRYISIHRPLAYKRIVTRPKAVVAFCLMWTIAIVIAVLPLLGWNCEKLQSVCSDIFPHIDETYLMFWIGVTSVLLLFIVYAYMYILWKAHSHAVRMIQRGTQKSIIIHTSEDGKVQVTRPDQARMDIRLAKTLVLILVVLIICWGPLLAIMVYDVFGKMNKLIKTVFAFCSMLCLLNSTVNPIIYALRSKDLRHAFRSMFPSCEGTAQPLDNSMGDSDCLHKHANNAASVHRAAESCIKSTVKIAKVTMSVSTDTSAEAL
Format: cell membranes, Membrane
Conditions: chem-1

| Structure (SMILES) | IC50 |
| --- | --- |
| CC1(C)S[C@@H]2[C@H](NC(=O)[C@H](N)c3ccc(O)cc3)C(=O)N2[C@H]1C(=O)O [AMOXICILLIN] | Not Active |
| NS(=O)(=O)c1cc2c(cc1Cl)NCNS2(=O)=O [HYDROCHLOROTHIAZIDE] | Not Active |
| O=c1cc(-c2ccccc2)oc2c1ccc1ccccc12 [ALPHA-NAPHTHOFLAVONE] | Not Active |

Biological target: T2, Endothelin-1 receptor (Homo sapiens, UniProt P25101); also: in other assays of this panel Not Active means under 50% inhibition at 10 µM
T2 sequence (P25101 whole entry): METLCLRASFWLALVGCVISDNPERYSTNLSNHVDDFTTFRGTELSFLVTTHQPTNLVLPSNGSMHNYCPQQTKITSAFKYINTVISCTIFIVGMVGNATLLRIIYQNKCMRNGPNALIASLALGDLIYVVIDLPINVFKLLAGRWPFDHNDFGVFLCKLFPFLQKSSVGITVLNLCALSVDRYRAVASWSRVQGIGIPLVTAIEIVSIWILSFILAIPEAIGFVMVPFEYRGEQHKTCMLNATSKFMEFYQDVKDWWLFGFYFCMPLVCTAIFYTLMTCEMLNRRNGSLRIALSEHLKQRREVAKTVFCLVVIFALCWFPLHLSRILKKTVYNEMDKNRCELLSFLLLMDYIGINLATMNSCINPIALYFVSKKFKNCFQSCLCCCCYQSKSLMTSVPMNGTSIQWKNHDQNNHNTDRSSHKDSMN
Format: cell membranes, Membrane
Conditions: cho-k1

| Structure (SMILES) | IC50 |
| --- | --- |
| CC1(C)S[C@@H]2[C@H](NC(=O)[C@H](N)c3ccc(O)cc3)C(=O)N2[C@H]1C(=O)O [AMOXICILLIN] | Not Active |
| NS(=O)(=O)c1cc2c(cc1Cl)NCNS2(=O)=O [HYDROCHLOROTHIAZIDE] | Not Active |
| O=c1cc(-c2ccccc2)oc2c1ccc1ccccc12 [ALPHA-NAPHTHOFLAVONE] | Not Active |

Tested on: not listed separately
Test: DRUGMATRIX: GABAA, Flunitrazepam, Central radioligand binding (ligand: [3H] Flunitrazepam)
Format: cell membranes, Rattus norvegicus, Wistar, Brain, Membrane
Conditions: Not Active = under 50% inhibition at 10 µM

| Structure (SMILES) | IC50 | Ki |
| --- | --- | --- |
| CC1(C)S[C@@H]2[C@H](NC(=O)[C@H](N)c3ccc(O)cc3)C(=O)N2[C@H]1C(=O)O [AMOXICILLIN] | Not Active | Not Active |
| NS(=O)(=O)c1cc2c(cc1Cl)NCNS2(=O)=O [HYDROCHLOROTHIAZIDE] | Not Active | Not Active |
| O=c1cc(-c2ccccc2)oc2c1ccc1ccccc12 [ALPHA-NAPHTHOFLAVONE] | Not Active | Not Active |

Biological target: T3, Muscarinic acetylcholine receptor M2 (Homo sapiens, UniProt P08172); also: in other assays of this panel Not Active means under 50% inhibition at 10 µM
T3 sequence (P08172 whole entry): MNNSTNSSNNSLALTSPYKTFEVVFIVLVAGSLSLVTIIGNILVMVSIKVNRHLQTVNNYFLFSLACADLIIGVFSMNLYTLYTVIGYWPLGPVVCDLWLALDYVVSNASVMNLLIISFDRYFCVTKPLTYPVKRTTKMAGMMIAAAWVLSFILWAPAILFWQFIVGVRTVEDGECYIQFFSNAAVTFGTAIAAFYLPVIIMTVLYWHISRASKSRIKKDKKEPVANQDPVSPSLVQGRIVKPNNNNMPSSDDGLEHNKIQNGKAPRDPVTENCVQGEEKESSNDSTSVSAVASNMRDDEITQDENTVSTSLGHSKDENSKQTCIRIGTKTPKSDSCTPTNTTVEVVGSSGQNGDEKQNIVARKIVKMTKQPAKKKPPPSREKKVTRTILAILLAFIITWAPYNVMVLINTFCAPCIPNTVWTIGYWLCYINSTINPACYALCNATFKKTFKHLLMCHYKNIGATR
Format: cell membranes, CHO-K1, Membrane
Conditions: cho-k1

| Structure (SMILES) | IC50 |
| --- | --- |
| CC1(C)S[C@@H]2[C@H](NC(=O)[C@H](N)c3ccc(O)cc3)C(=O)N2[C@H]1C(=O)O [AMOXICILLIN] | Not Active |
| NS(=O)(=O)c1cc2c(cc1Cl)NCNS2(=O)=O [HYDROCHLOROTHIAZIDE] | Not Active |
| O=c1cc(-c2ccccc2)oc2c1ccc1ccccc12 [ALPHA-NAPHTHOFLAVONE] | Not Active |

Biological target: Kappa-type opioid receptor (Homo sapiens, UniProt P41145)
Sequence (P41145 whole entry): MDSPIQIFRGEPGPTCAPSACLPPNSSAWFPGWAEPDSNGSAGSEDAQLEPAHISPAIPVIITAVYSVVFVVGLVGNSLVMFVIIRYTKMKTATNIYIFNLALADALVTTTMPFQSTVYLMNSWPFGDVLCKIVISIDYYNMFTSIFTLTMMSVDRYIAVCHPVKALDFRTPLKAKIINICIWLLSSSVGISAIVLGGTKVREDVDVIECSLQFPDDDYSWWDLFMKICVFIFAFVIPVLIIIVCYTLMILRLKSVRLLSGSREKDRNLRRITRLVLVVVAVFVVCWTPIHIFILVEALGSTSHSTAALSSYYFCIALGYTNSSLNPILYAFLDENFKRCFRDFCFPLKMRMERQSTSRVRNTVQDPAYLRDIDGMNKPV
Test: DRUGMATRIX: Opiate kappa (OP2, KOP) radioligand binding (ligand: [3H] Diprenorphine)
Format: cell membranes, HEK293, Membrane
Conditions: hek293; Not Active = under 50% inhibition at 10 µM

| Structure (SMILES) | IC50 |
| --- | --- |
| CC1(C)S[C@@H]2[C@H](NC(=O)[C@H](N)c3ccc(O)cc3)C(=O)N2[C@H]1C(=O)O [AMOXICILLIN] | Not Active |
| NS(=O)(=O)c1cc2c(cc1Cl)NCNS2(=O)=O [HYDROCHLOROTHIAZIDE] | Not Active |
| O=c1cc(-c2ccccc2)oc2c1ccc1ccccc12 [ALPHA-NAPHTHOFLAVONE] | Not Active |

Tested on: not listed separately
Test: DRUGMATRIX: Phosphodiesterase PDE3 enzyme inhibition (substrate: [3H]cAMP + cAMP)
Format: tissue-based, Homo sapiens
Conditions: platelet; Not Active = under 50% inhibition at 10 µM

| Structure (SMILES) | IC50 | Ki |
| --- | --- | --- |
| CC1(C)S[C@@H]2[C@H](NC(=O)[C@H](N)c3ccc(O)cc3)C(=O)N2[C@H]1C(=O)O [AMOXICILLIN] | Not Active | Not Active |
| NS(=O)(=O)c1cc2c(cc1Cl)NCNS2(=O)=O [HYDROCHLOROTHIAZIDE] | Not Active | Not Active |
| O=c1cc(-c2ccccc2)oc2c1ccc1ccccc12 [ALPHA-NAPHTHOFLAVONE] | Not Active | Not Active |

Biological target: Protein phosphatase 3 catalytic subunit alpha (Homo sapiens, UniProt Q08209);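 also: inhibition of calcineurin (PP2B) enzyme activity, measured with DiFMUP as the substrate; in other assays of this panel Not Active means under 50% inhibition at 10 µM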
Parameters: species or system Escherichia coli
Conditions: not given

| Structure (SMILES) | IC50 |
| --- | --- |
| CC1(C)S[C@@H]2[C@H](NC(=O)[C@H](N)c3ccc(O)cc3)C(=O)N2[C@H]1C(=O)O [AMOXICILLIN] | Not Active |
| NS(=O)(=O)c1cc2c(cc1Cl)NCNS2(=O)=O [HYDROCHLOROTHIAZIDE] | Not Active |
| O=c1cc(-c2ccccc2)oc2c1ccc1ccccc12 [ALPHA-NAPHTHOFLAVONE] | Not Active |

Biological target: T4, 5-hydroxytryptamine receptor 1A (Rattus norvegicus, UniProt P19327); also: in other assays of this panel Not Active means under 50% inhibition at 10 µM
T4 sequence (P19327 whole entry): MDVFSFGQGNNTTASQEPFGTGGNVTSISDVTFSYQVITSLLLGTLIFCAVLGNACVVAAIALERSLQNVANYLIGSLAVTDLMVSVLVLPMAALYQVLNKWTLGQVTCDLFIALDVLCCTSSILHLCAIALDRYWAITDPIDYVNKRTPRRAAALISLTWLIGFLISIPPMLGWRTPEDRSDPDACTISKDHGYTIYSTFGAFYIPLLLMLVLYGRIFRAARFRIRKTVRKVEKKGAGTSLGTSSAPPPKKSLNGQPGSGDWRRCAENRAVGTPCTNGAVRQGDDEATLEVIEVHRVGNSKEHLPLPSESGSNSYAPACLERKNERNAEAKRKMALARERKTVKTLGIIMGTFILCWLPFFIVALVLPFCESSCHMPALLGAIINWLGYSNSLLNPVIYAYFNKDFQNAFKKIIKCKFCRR
Format: cell membranes, CHO-K1, Membrane
Conditions: cho-k1

| Structure (SMILES) | IC50 |
| --- | --- |
| CC1(C)S[C@@H]2[C@H](NC(=O)[C@H](N)c3ccc(O)cc3)C(=O)N2[C@H]1C(=O)O [AMOXICILLIN] | Not Active |
| NS(=O)(=O)c1cc2c(cc1Cl)NCNS2(=O)=O [HYDROCHLOROTHIAZIDE] | Not Active |
| O=c1cc(-c2ccccc2)oc2c1ccc1ccccc12 [ALPHA-NAPHTHOFLAVONE] | Not Active |

Biological target: Cytochrome P450 2C9 (Homo sapiens, UniProt P11712); also: in other assays of this panel Not Active means under 50% inhibition at 10 µM
Sequence (P11712 whole entry): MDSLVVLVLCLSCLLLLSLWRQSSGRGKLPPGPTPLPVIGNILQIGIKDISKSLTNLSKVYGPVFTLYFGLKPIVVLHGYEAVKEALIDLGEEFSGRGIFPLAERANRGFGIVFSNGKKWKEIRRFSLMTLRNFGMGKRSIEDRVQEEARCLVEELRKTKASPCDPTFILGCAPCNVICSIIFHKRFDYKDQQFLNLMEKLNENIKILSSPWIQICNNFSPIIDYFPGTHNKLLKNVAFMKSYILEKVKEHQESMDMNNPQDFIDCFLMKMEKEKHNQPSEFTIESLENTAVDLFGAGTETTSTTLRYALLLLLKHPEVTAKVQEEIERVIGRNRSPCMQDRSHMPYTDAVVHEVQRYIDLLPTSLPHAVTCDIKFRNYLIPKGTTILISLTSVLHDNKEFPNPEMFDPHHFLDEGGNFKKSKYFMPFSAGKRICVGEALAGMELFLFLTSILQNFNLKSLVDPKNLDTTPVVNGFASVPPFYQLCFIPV
Conditions: bti-tn-5b1-4

| Structure (SMILES) | IC50 | Ki |
| --- | --- | --- |
| CC1(C)S[C@@H]2[C@H](NC(=O)[C@H](N)c3ccc(O)cc3)C(=O)N2[C@H]1C(=O)O [AMOXICILLIN] | Not Active | Not Active |
| NS(=O)(=O)c1cc2c(cc1Cl)NCNS2(=O)=O [HYDROCHLOROTHIAZIDE] | Not Active | Not Active |
| O=c1cc(-c2ccccc2)oc2c1ccc1ccccc12 [ALPHA-NAPHTHOFLAVONE] | Not Active | Not Active |
